Laboratory results reported in ChEMBL document CHEMBL3112508, “IV. Discovery of CXCR3 antagonists substituted with heterocycles as amide surrogates: improved PK, hERG and metabolic profiles” (Bioorg Med Chem Lett, 2014).

How the values were obtained:
[1] = biological target: T1, C-X-C chemokine receptor type 3 (Homo sapiens, UniProt P49682); assay: Binding affinity to human CXCR3 receptor
T1 sequence (P49682 whole entry): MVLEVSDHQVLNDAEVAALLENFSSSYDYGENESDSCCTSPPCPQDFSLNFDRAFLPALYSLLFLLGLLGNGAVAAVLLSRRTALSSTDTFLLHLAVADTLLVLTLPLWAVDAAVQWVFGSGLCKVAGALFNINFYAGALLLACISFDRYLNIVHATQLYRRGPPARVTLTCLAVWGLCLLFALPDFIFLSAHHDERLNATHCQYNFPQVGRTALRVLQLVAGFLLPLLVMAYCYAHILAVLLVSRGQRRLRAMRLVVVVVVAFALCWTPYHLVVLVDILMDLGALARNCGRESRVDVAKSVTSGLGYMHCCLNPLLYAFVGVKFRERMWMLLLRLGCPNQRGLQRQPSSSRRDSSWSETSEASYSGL

Rattus norvegicus [2] = assay: AUC in rat at 10 mg/kg, po after 6 hrs; format: ADME, organism-based, Plasma; parameters: time < 6 hr, dose 10 mg/kg, route oral; details: in vivo
[3] = biological target: Voltage-gated inwardly rectifying potassium channel KCNH2 (Homo sapiens, UniProt Q12809); assay: Inhibition of human ERG channel by Rb efflux assay
Rattus norvegicus [4] = assay: (§1) AUC in rat at 10 mg/kg, po; format: ADME, organism-based, Plasma; parameters: dose 10 mg/kg, route oral; details: in vivo
[5] = as §1; format: ADME, organism-based, Plasma; parameters: dose 10 mg/kg, route oral; details: plasma

Voltage-gated inwardly rectifying potassium channel KCNH2, sequence (Q12809 whole entry): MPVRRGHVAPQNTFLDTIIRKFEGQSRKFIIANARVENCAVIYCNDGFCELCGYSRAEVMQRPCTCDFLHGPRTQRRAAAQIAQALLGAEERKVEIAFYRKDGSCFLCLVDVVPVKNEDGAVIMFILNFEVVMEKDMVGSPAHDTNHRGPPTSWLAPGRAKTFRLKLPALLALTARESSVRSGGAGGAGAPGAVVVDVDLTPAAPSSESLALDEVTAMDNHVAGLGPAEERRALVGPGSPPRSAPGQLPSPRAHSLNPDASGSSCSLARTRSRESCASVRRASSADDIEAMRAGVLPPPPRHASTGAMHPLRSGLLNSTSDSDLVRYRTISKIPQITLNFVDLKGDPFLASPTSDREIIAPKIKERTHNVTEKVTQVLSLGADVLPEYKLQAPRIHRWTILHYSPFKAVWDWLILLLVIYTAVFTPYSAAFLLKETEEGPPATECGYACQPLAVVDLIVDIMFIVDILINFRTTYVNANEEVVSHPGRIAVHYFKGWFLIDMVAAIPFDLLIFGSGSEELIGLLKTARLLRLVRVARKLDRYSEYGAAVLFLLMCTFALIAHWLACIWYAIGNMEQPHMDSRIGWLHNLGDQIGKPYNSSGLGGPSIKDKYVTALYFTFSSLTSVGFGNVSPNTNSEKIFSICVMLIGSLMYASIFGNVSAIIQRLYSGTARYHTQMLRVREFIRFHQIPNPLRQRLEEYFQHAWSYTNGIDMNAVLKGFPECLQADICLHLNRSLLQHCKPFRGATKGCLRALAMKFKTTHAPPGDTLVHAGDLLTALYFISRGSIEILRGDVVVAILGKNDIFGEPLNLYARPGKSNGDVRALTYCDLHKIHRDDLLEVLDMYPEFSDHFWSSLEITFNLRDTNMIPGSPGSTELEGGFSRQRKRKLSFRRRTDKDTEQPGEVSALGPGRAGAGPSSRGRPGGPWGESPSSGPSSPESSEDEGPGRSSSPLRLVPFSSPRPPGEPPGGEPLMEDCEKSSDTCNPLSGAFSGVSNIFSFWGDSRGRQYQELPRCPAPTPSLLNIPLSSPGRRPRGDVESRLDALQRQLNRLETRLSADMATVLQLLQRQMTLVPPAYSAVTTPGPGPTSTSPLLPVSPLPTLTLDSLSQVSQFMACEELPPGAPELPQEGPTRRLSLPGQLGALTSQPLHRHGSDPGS

IC50 [1] [nM]	AUC (Rattus norvegicus [2]) [uM.hr/ml]	AUC (Rattus norvegicus [4]) [uM.hr/ml]	AUC [5] [µM·h]	SMILES	inhibition (INH) [3] [%]
6.8				CC[C@H]1CN(c2ncc(-c3nnc[nH]3)cc2Cl)CCN1C1CCN(Cc2ccc(Cl)cc2F)CC1	
1.2	0.9	16.4		CCNc1nnc(-c2cnc(N3CCN(C4CCN(C(=O)c5ccc(Cl)cc5)CC4)[C@@H](CC)C3)c(C)n2)o1	40
0.3				CC[C@H]1CN(c2ncc(-c3ncc[nH]3)cc2Cl)CCN1C1CCN(Cc2ccc(Cl)cc2F)CC1	
1		16.6		CCNc1nnc(-c2nc(Cl)c(N3CCN(C4CCN(C(=O)c5ccc(Cl)nc5N)CC4)[C@@H](CC)C3)nc2N)o1	26
0.8	1.4	40.4		CCNc1nnc(-c2cnc(N3CCN(C4CCN(C(=O)c5ccc(Cl)nc5N)CC4)[C@@H](CC)C3)c(Cl)n2)o1	14
1.2	0.1	2.6		CCNc1nnc(-c2cnc(N3CCN(C4CCN(C(=O)c5ccc(Cl)nc5N)CC4)[C@@H](CC)C3)c(C)n2)o1	12
50.5				CC[C@H]1CN(c2ncc(C#N)cc2Cl)CCN1C1CCN(Cc2ccc(Cl)cc2F)CC1	
3.8				CCNc1nnc(-c2cnc(N3CCN(C4CCN(C(=O)c5ccc(Cl)nc5N)CC4)[C@@H](CC)C3)c(CC)n2)o1	4
286				CC[C@H]1CN(c2ncc(-c3ncon3)cc2Cl)CCN1C1CCN(Cc2ccc(Cl)cc2F)CC1	
23.6				CC[C@H]1CN(c2nc(N)c(-c3nnc(N(C)C)o3)nc2Cl)CCN1C1CCN(C(=O)c2ccc(Cl)nc2N)CC1	67
5.2				CC[C@H]1CN(c2nc(N)c(-c3nnco3)nc2Cl)CCN1C1CCN(Cc2ccc(Cl)cc2)CC1	
2300				CC[C@H]1CN(c2nc(N)c(-c3nnc(NS(C)(=O)=O)o3)nc2Cl)CCN1C1CCN(C(=O)c2ccc(Cl)nc2N)CC1	5
3.6	5.1	30.2		CCNc1nnc(-c2cnc(N3C[C@H](CC)N(C4CCN(C(=O)c5ccc(Cl)nc5N)CC4)C[C@H]3C)c(C(F)(F)F)n2)o1	22
24.5				CCNc1nnc(-c2cnc(N3CCN(C4CCN(C(=O)c5ccc(Cl)nc5N)CC4)[C@@H](CC)C3)c(C3CC3)n2)o1	14
3.4	0.8	15.3		CCNc1nnc(-c2cnc(N3C[C@H](CC)N(C4CCN(C(=O)c5ccc(Cl)nc5N)CC4)C[C@H]3C)c(C)n2)o1	4
2.2		2.5		CC[C@H]1CN(c2nc(N)c(-c3nnc(CO)o3)nc2Cl)CCN1C1CCN(C(=O)c2ccc(Cl)nc2N)CC1	16
2.8	3.3	16.6		CCNc1nnc(-c2cnc(N3C[C@H](CC)N(C4CCN(C(=O)c5ccc(Cl)cc5)CC4)C[C@H]3C)c(C)n2)o1	25
1.3		0.3		CC[C@H]1CN(c2nc(N)c(-c3nnc(N)o3)nc2Cl)CCN1C1CCN(C(=O)c2ccc(Cl)nc2N)CC1	7
1.3				CC[C@H]1CN(c2ncc(C3=NCCN3)cc2Cl)CCN1C1CCN(Cc2ccc(Cl)cc2F)CC1	

IC50 [1] [nM]	AUC (Rattus norvegicus [2]) [uM.hr/ml]	AUC (Rattus norvegicus [4]) [uM.hr/ml]	AUC [5] [µM·h]	SMILES	inhibition (INH) [3] [%]
437				CCNc1nnc(-c2cnc(N3CCN(C4CCN(C(=O)c5ccc(Cl)nc5N)CC4)[C@@H](CC)C3)c(C(C)C)n2)o1	8
1.8	0.3	6.7		CC[C@H]1CN(c2ncc(-c3ncc[nH]3)nc2C)[C@H](C)CN1C1CCN(C(=O)c2ccc(Cl)nc2N)CC1	22
1.8	2.3	9.9		CCNc1nnc(-c2cnc(N3C[C@H](CC)N(C4CCN(C(=O)c5ccc(Cl)cc5)CC4)C[C@H]3C)c(C(F)(F)F)n2)o1	27
6.4	1	12.7		CC[C@H]1CN(c2ncc(-c3nnc(N)o3)nc2C)[C@H](C)CN1C1CCN(C(=O)c2ccc(Cl)cc2)CC1	0
6.2	2.4	18		CC[C@H]1CN(c2ncc(-c3nnc(NC)o3)nc2C)[C@H](C)CN1C1CCN(C(=O)c2ccc(Cl)cc2)CC1	17
2		10.2		CC[C@H]1CN(c2nc(N)c(-c3nnc(C)o3)nc2Cl)CCN1C1CCN(C(=O)c2ccc(Cl)nc2N)CC1	26
1.6		5.5		CC[C@H]1CN(c2nc(N)c(-c3nnc(NC)o3)nc2Cl)CCN1C1CCN(C(=O)c2ccc(Cl)nc2N)CC1	39
0.4		1		CC[C@H]1CN(c2nc(N)c(-c3nnc(C)o3)nc2Cl)CCN1C1CCN(Cc2ccc(Cl)cc2)CC1	
1380				CC[C@H]1CN(c2ncc(-c3nnn[nH]3)cc2Cl)CCN1C1CCN(Cc2ccc(Cl)cc2F)CC1	
4.2		3.9		CC[C@H]1CN(c2nc(N)c(-c3nnc(C)o3)nc2Cl)CCN1C1CCN(C(=O)c2ccc(Cl)cc2)CC1	85
1.6	0.8	7.3		CC[C@H]1CN(c2ncc(-c3ncc[nH]3)nc2C)[C@H](C)CN1C1CCN(C(=O)c2ccc(Cl)cc2)CC1	36
		5.1		CC[C@H]1CN(c2nc(N)c(C(N)=O)nc2Cl)CCN1C1CCN(Cc2ccc(Cl)cc2)CC1	> 90
1.4			1.8	CC[C@H]1CN(c2ncc(-c3nnco3)cc2Cl)CCN1C1CCN(Cc2ccc(Cl)cc2F)CC1	
1.5	4.2	25.3		CCNc1nnc(-c2cnc(N3CCN(C4CCN(C(=O)c5ccc(Cl)nc5N)CC4)[C@@H](CC)C3)c(C(F)(F)F)n2)o1	43
33.8	4.9	26.5		CC[C@H]1CN(c2ncc(-c3nnc[nH]3)nc2C)[C@H](C)CN1C1CCN(C(=O)c2ccc(Cl)cc2)CC1	4
3.9		0.1		CC[C@H]1CN(c2nc(N)c(-c3nnc(NCCO)o3)nc2Cl)CCN1C1CCN(C(=O)c2ccc(Cl)nc2N)CC1	0
760				CC[C@H]1CN(c2ncc(-c3noc(=O)[nH]3)cc2Cl)CCN1C1CCN(Cc2ccc(Cl)cc2F)CC1	
6				CC[C@H]1CN(c2nc(N)c(-c3nnc(C4CC4)o3)nc2Cl)CCN1C1CCN(C(=O)c2ccc(Cl)nc2N)CC1	72
